Results taken from US20240150321A1, “PYRAZOLYLSULFONAMIDE COMPOUNDS AND THEIR USE IN THERAPY” (HOTSPOT THERAPEUTICS, INC., priority 2022, published 2024).
pIC50: −log10 of the molar value. Where two headings read alike, the source gives them in different places.

What was measured:
Avi-tagged FL MALT-1 = Avi-tagged FL MALT-1 (Homo sapiens (Human), UniProt Q9UDY8); assay: MALT-1 Fluorogenic Peptide Cleavage Assay (MALT1 inhibition assay); type: biochemical; conditions: Ac-LRSR-AMC peptide substrate, 30 min pre-incubation, 90 min reaction at room temperature
Sequence of Avi-tagged FL MALT-1 (Q9UDY8 whole entry): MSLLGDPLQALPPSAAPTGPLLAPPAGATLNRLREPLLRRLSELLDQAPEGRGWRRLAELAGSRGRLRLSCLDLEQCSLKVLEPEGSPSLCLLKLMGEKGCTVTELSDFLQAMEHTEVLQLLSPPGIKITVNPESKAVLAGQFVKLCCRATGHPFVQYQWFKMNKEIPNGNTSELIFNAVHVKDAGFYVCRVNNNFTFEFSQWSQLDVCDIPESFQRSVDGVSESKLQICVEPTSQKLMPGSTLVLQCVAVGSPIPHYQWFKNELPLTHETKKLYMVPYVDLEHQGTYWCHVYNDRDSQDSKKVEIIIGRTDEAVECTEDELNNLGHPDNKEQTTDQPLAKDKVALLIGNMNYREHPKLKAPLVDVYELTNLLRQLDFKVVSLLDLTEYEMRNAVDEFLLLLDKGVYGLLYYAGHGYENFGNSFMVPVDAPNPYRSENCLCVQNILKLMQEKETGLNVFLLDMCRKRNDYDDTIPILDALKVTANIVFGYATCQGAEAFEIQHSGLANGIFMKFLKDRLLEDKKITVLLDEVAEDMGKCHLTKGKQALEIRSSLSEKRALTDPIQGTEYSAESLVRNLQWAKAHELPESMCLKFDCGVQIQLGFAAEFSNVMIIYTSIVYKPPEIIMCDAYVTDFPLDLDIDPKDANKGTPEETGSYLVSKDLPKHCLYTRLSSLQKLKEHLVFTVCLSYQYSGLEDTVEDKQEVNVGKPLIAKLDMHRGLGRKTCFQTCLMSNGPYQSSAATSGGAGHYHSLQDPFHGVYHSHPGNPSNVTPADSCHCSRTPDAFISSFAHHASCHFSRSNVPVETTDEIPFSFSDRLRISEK
Method: Inhibition of MALT1 activity by the presence of small molecules was evaluated using MALT-1 Fluorogenic Peptide Cleavage Assay. The assay utilizes a quenched AMC-labelled peptide that contains the MALT-1 recognition sequence and cleavage site (LRSR). MALT-1 mediated cleavage of the peptide relieves the quenching and leads to an increase in fluorescence at excitation (342 nm) and emission (441 nm).
The following reagents were obtained commercially and used to prepare standard reagent formulations as further described below: N-2-hydroxyethylpiperazine-N-2-ethane sulfonic acid (HEPES) (1 M, pH 7.5, stored at 4° C.), sodium citrate (stored at RT), tris(2-carboxyethyl) phosphine hydrochloride (T-CEP) (500 mM, stored at −20° C.), ethylenediaminetetraacetic acid (EDTA) (500 mM, stored at RT), dimethylsulfoxide (DMSO, stored at RT), 3-[(3-cholamido-propyl)dimethylammonio]-1-propane sulphate (CHAPS) (stored at RT), dimethylsulfoxide (DMSO), DMSO (Fisher Scientific, stored at RT), Avi-tagged FL MALT-1 (Pharmaron, stored at −70° C.), Ac-LRSR-AMC Peptide (SM Biochemicals, stored at −20° C.)., and ultrapure water (MILLLI-Q©).
The standard reagent formulations used in this assay were prepared and stored as follows. A 1.1 M solution of sodium citrate (161.3 g, 500 mL) was prepared and stored at room temperature. A 10% (w/v) CHAPS solution (2.0 g, 20 mL) was prepared and stored at 4° C. A 500 mM HEPES solution having pH of 6.89 was prepared from 200 mL of a 1 M HEPES solution having a pH of 7.5 using concentrated hydrochloric acid and brought to a final volume of 400 mL with MILLI-Q© H2O. The substrate, 10 mM Ac-LRSR-AMC Peptide, was prepared (10 mg, 1.370 mL DMSO) and stored at −20° C.
Compounds were plated to provide a 2% DMSO final concentration using a ProxiPlate-384 Plus F Black 384-shallow well microplate. The assay-ready plates were equilibrated to room temperature. A reaction buffer (30 mL total volume) was prepared by combining HEPES (pH 6.89, 25 mM, 1.5 mL), sodium citrate (660 mM, 18.0 mL), T-CEP (1 mM, 0.06 mL), EDTA ([…], 0.06 mL), CHAPS (0.05%, 0.15 mL), DMSO (2%, 0.6 mL), and MILLI-Q© H2O (10.23 mL; 9.63 mL when backfilled to 2% DMSO) followed by thorough mixing. DMSO was added only when compound plates had not been DMSO-backfilled to 2%.
MALT-1 was thawed and kept on ice. Peptide substrate was thawed on the bench under ambient conditions. A MALT-1 enzyme working stock was prepared from Avi-tagged FL MALT-1 (40 nM in a prepared reagent volume of 16.5 μL) and the reaction buffer (13.0 mL). MALT1 working stock (5 μL) was added to each well of the microplate. MALT-1 was pre-incubated with compounds for 30 minutes at room temperature.
Two substrate working stocks (Km and 10×Km) were prepared. The 1×Km substrate was prepared from Ac-LRSR-AMC Peptide (50 μM in a prepared reagent volume of 35.0 μL) and the reaction buffer (6.965 mL). The 10×Km substrate was prepared from Ac-LRSR-AMC Peptide (280 μM in a prepared reagent volume of 196.0 μL) and the reaction buffer (6.804 mL). The reaction was initiated by the addition of substrate working stock (5 μL, 50 μM) to Km plates and the addition of substrate working stock (5 μL 280 μM) to 10×Km plates. The plates were covered and incubated on the bench at room temperature for 90 minutes.
Fluorescence intensity was determined using a CLARIOstar microplate reader (BMG LABTECH) using the optimised AMC mode. Before taking readings, a 70% gain was applied on the neutral control well. Compound data were normalised to % Inhibition and used to plot sigmoidal concentration response curves to yield various parameters including IC50.

[1] = tested on: NF-kB reporter in Jurkat cells; assay: NF-kB reporter assay in Jurkat cells stimulated with aCD3/aCD28/PMA; type: cell-based
Method: Jurkat cells were maintained in complete RPMI 1640 media supplemented with 10% FBS. Prior to the assay, 120 nL of the serial diluted compound was added in each well of 384-well flat bottom white plate (Corning #3570) by using liquid handler Echo550. Jurkat cells were harvested by centrifugation at 120 g for 10 min and resuspended in fresh RPMI 1640 media without serum. […] (25,000 cells) were seeded in each well of 384-well plate containing compound. After 1 hr incubation at 37° C. in a 5% CO2 incubator, […] of diluted aCD3/aCD28/PMA (final concentration at […] and […], respectively) in RPMI 1640 without serum were added to each well. After incubation at 37° C. in 5% CO2 for 4 hr, […] of One-Glo reagent (Promega #E6120) was added into each well. The plate was left at room temperature for 5 min and the signal was measured on EnVision (PerkinElmer).
Compounds in which an IC50 was not measured are designated as “N/A”.

[2] = Homo sapiens; Jurkat cells, 1 hr compound pre-incubation, aCD3/aCD28/PMA stimulation 4 hr, One-Glo readout; read-out: NF-kB Reporter Assay IC50
[3] = Jurkat cells, 1 hr compound pre-incubation, aCD3/aCD28/PMA stimulation 4 hr, One-Glo readout; read-out: NF-kB Reporter Assay IC50

Compound | pIC50 (Avi-tagged FL MALT-1) | pIC50 [1, 2] | pIC50 [1, 3] | pIC50 ([1]; read-out: NF-kB Reporter Assay IC50; Jurkat cells, 1 hr compound pre-incubation, aCD3/aCD28/PMA stimulation 4 hr, One-Glo readout)
COc1ncc2cnn(C)c2c1NS(=O)(=O)c1cnn(-c2cc(C(C)OC)ccn2)c1 (single isomer, unassigned) [Compound I-272, N-(6-methoxy-1-methyl-1H-pyrazolo[4,3-c]pyridin-7-yl)-1-(4-(1-methoxyethyl)pyridin-2-yl)-1H-pyrazole-4-sulfonamide] | ≥ 6.40 | > 6.40 |  | 
COc1ncc2cnn(C)c2c1NS(=O)(=O)c1cnn(-c2cc(C(C)OC)ccn2)c1 (single isomer, unassigned) [Compound I-273, N-{6-methoxy-1-methylpyrazolo[4,3-c]pyridin-7-yl}-1-{4-[1-methoxyethyl]pyridin-2-yl}pyrazole-4-sulfonamide] | ≥ 6.40 |  | > 6.40 | 
CCC(O)c1ccnc(-n2cc(S(=O)(=O)Nc3c(OC)ccc4cnn(C)c34)cn2)c1 (single isomer, unassigned) [Compound I-280, 1-(4-(1-hydroxypropyl)pyridin-2-yl)-N-(6-methoxy-1-methyl-1H-indazol-7-yl)-1H-pyrazole-4-sulfonamide] | 6.00 to 6.40 |  |  | > 6.40
CCC(O)c1ccnc(-n2cc(S(=O)(=O)Nc3c(OC)ccc4cnn(C)c34)cn2)c1 (single isomer, unassigned) [Compound I-281, 1-(4-(1-hydroxypropyl)pyridin-2-yl)-N-(6-methoxy-1-methyl-1H-indazol-7-yl)-1H-pyrazole-4-sulfonamide] | 6.00 to 6.40 | > 6.40 |  | 
CCc1ccc2cnn(C)c2c1NS(=O)(=O)c1cnn(-c2ccnc(C(F)(F)F)n2)c1 [Compound I-11, N-(6-Ethyl-1-Methyl-1H-Indazol-7-yl)-1-(2-(Trifluoromethyl) Pyrimidin-4-yl)-1H-Pyrazole-4-Sulfonamide] | 5.60 to 6.00 |  |  | 
CCc1ccc2cnn(C)c2c1NS(=O)(=O)c1cnn(-c2cccc(C(F)(F)F)n2)c1 [Compound I-12, N-(6-Ethyl-1-Methyl-1H-Indazol-7-yl)-1-(2-(Trifluoromethyl) Pyridin-2-yl)-1H-Pyrazole-4-Sulfonamide] | < 5.60 |  |  | 
Cn1ncc2cccc(NS(=O)(=O)c3cnn(-c4cccc(C(F)(F)F)n4)c3)c21 [Compound I-13, N-(1-Methyl-1H-Indazol-7-yl)-1-(6-(Trifluoromethyl)Pyridin-2-yl)-1H-Pyrazole-4-Sulfonamide] | < 5.60 |  |  | 

The next lines start with results.

pIC50 (Avi-tagged FL MALT-1) | pIC50 [1, 2] | pIC50 [1, 3] | Compound | pIC50 ([1]; read-out: NF-kB Reporter Assay IC50; Jurkat cells, 1 hr compound pre-incubation, aCD3/aCD28/PMA stimulation 4 hr, One-Glo readout)
≥ 6.40 | > 6.40 |  | COc1ccc2cnn(C)c2c1NS(=O)(=O)c1cnn(-c2cc(C(C)OC)ccn2)c1 (single isomer, unassigned) [Compound I-290, N-(6-methoxy-1-methyl-1H-indazol-7-yl)-1-(4-(1-methoxyethyl)pyridin-2-yl)-1H-pyrazole-4-sulfonamide] | 
≥ 6.40 |  | > 6.40 | COc1ccc2cnn(C)c2c1NS(=O)(=O)c1cnn(-c2cc(C(C)OC)ccn2)c1 (single isomer, unassigned) [Compound I-291, N-(6-methoxy-1-methyl-1H-indazol-7-yl)-1-(4-(1-methoxyethyl)pyridin-2-yl)-1H-pyrazole-4-sulfonamide] | 
6.00 to 6.40 | 6.00 to 6.40 |  | COc1ncc2cnn(C)c2c1NS(=O)(=O)c1cnn(-c2cc(C(C)O)ccn2)c1 (single isomer, unassigned) [Compound I-292, 1-(4-(1-hydroxyethyl)pyridin-2-yl)-N-(6-methoxy-1-methyl-1H-pyrazolo[4,3-c]pyridin-7-yl)-1H-pyrazole-4-sulfonamide] | 
≥ 6.40 |  | 6.00 to 6.40 | COc1ncc2cnn(C)c2c1NS(=O)(=O)c1cnn(-c2cc(C(C)O)ccn2)c1 (single isomer, unassigned) [Compound I-293, 1-(4-(1-hydroxyethyl)pyridin-2-yl)-N-(6-methoxy-1-methyl-1H-pyrazolo[4,3-c]pyridin-7-yl)-1H-pyrazole-4-sulfonamide] | 
6.00 to 6.40 | > 6.40 |  | CCC(C)(O)c1ccnc(-n2cc(S(=O)(=O)Nc3c(OC)ccc4cnn(C)c34)cn2)c1 (single isomer, unassigned) [Compound I-315, 1-(4-(2-hydroxybutan-2-yl)pyridin-2-yl)-N-(6-methoxy-1-methyl-1H-indazol-7-yl)-1H-pyrazole-4-sulfonamide] | 
